This is an account of results in patent publication US20240109853A1 (Shanghai Yao Yuan Biotechnology Co., Ltd., priority 2020, published 2024).

Counter-ions that a name gives are not always drawn. Like-named read-outs stand apart in the source and are kept apart here.

The target in this test is ALPK1 (Homo sapiens (Human), UniProt Q96QP1). The experiment in a line: ALPK1 in vitro kinase assay (HTRF of TIFA phosphorylation). The format is biochemical. (In general: TR-FRET usually uses a lanthanide donor and a delayed reading to cut background.)
Sequence of ALPK1 (Q96QP1 whole entry): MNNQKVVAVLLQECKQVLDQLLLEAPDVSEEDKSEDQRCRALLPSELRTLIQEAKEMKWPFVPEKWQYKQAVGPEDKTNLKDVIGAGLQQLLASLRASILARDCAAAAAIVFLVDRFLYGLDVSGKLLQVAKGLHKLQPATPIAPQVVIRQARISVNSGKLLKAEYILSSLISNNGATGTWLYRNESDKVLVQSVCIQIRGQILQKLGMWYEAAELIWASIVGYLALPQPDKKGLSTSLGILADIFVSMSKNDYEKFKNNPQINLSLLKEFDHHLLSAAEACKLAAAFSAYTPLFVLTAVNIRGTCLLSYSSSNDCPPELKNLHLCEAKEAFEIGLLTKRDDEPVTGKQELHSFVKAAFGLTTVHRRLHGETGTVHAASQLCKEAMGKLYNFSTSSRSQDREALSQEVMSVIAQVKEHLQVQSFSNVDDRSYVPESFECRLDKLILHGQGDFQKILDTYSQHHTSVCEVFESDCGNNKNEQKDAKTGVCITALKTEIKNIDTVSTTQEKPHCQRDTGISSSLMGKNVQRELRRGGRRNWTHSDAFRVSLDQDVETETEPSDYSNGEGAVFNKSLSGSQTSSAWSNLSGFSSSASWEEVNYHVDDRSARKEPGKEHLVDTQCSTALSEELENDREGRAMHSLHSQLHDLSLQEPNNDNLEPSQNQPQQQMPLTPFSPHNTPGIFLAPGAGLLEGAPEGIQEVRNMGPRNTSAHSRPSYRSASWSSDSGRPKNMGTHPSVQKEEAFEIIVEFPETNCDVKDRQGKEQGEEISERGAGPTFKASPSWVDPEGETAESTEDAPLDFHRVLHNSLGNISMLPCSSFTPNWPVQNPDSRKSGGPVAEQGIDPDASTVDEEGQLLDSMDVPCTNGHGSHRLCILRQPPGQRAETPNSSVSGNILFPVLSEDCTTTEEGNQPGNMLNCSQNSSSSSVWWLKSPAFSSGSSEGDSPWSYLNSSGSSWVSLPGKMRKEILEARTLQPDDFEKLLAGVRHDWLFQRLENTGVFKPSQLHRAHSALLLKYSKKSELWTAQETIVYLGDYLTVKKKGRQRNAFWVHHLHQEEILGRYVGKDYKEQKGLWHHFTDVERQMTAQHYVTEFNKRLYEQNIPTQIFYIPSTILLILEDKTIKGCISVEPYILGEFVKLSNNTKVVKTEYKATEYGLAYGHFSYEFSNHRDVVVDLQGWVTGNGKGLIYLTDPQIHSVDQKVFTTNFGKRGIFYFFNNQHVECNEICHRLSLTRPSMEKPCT
[1] abbreviates: ALPK1 2 nM, TIFA substrate, ADP-Heptose activator, HTRF readout.

Broadly, the IC50 is the concentration needed to halve the response being measured. Low values mean inhibition by little substance, high ones a need for much substance. For the compound `C#C[C@](C)(c1ccc(Cl)cc1)c1nc(NC(=O)c2c(F)cc(N3CCNCC3)cc2F)sc1Cl` (stereo in doubt) [Example C049, N-(5-chloro-4-(2-(4-chlorophenyl)but-3-yn-2-yl)thiazol-2-yl)-2,6-difluoro-4-(piperazin-1-yl)benzamide], the IC50 under setting [1] was determined as 4520 nM.
For the compound `COc1ccc(C(C)(C)c2csc(NC(=O)NCc3ccc(N4CCC(N)C4)cc3)n2)cc1` (stereo not drawn) [Example A184, 1-(4-(3-aminopyrrolidin-1-yl)benzyl)-3-(4-(2-(4-methoxyphenyl)propan-2-yl)thiazol-2-yl)urea], 242 nM corresponded to half-maximal inhibition (IC50).
On to `O=C(Nc1nc(C2(c3ccc(Br)cc3)CCCC2)cs1)c1c(F)cc(N2CCNCC2)cc1F` [Example C006, N-(4-(1-(4-bromophenyl)cyclopentyl)thiazol-2-yl)-2,6-difluoro-4-(piperazin-1-yl)benzamide], for which the midpoint of inhibition under setting [1], the IC50, lay at 43 nM.
`C#CC(C)(c1ccc(Cl)cc1)c1coc(NC(=O)c2c(F)cc(N3CCNCC3)cc2F)n1` (stereo not drawn) [Example C051, N-(4-(2-(4-chlorophenyl)but-3-yn-2-yl)oxazol-2-yl)-2,6-difluoro-4-(piperazin-1-yl)benzamide] came in with an IC50 under setting [1] of 26 nM.
On the same count and under the same terms, with `C#CC(C)(c1ccc(Cl)cc1)c1csc(NC(C)=O)n1` (stereo not drawn) [Example D004, N-(4-(2-(4-chlorophenyl)but-3-yn-2-yl)thiazol-2-yl)acetamide] the figure was 18 nM.
In turn, `C#CC(C)(c1ccc(Cl)cc1)c1csc(NC(=O)N(CCO)CCO)n1` (stereo not drawn) [Example A267, 3-(4-(2-(4-chlorophenyl)but-3-yn-2-yl)thiazol-2-yl)-1,1-bis(2-hydroxyethyl)urea] yielded an IC50 of 171 nM.
With `CNC(=O)Nc1nc(C(C)(C)c2ccc(OC)cc2)cs1` [Example A143, 1-(4-(2-(4-methoxyphenyl)propan-2-yl)thiazol-2-yl)-3-methylurea], the IC50 came to 53 nM.
With `COc1ccc(C(C)(C)c2csc(NC(=O)c3ccc(OCCCN4CCNCC4)cc3)n2)cc1` [Example B022, N-(4-(2-(4-methoxyphenyl)propan-2-yl)thiazol-2-yl)-4-(3-(piperazin-1-yl)propoxy)benzamide], under setting [1], the IC50 was 294 nM.
Under setting [1], `COc1ccc(C(C)(C)c2csc(NC(=O)c3cccc(CN4CCN(CCO)CC4)c3)n2)cc1` [Example B018, 3-((4-(2-hydroxyethyl)piperazin-1-yl)methyl)-N-(4-(2-(4-methoxyphenyl)propan-2-yl)thiazol-2-yl)benzamide] had a half-inhibitory concentration (IC50) of 187 nM.
As to `CC(C)(c1ccc(Br)cc1)c1csc(NC(=O)NCc2cnc(N3CCNC(=O)C3)nc2)n1` [Example A113, 1-(4-(2-(4-bromophenyl)propan-2-yl)thiazol-2-yl)-3-((2-(3-oxopiperazin-1-yl)pyrimidin-5-yl)methyl)urea], the half-maximal inhibitory concentration (IC50) came to 126 nM.
Under setting [1], `CN(C)CCNc1ccc(C(=O)Nc2nc(C(C)(C)c3ccc(Br)cc3)cs2)cn1` [Example B055, N-(4-(2-(4-bromophenyl)propan-2-yl)thiazol-2-yl)-6-((2-(dimethylamino)ethyl)amino)nicotinamide] yielded an IC50 of 125 nM.
Consider `C#C[C@](C)(c1ccc(Cl)cc1)c1csc(NC(=O)c2c(F)cc(N3CCN(C)CC3)cc2F)n1` [Example C010, (R)-N-(4-(2-(4-chlorophenyl)but-3-yn-2-yl)thiazol-2-yl)-2,6-difluoro-4-(4-methylpiperazin-1-yl)benzamide], for which the half-maximal inhibitory concentration (IC50) under setting [1] turned out to be 56 nM.
The same measure, in the same setting: with `COc1ccc(C(C)(C)c2csc(NC(=O)c3ccc(C4CCNCC4)cc3)n2)cc1` [Example B047, N-(4-(2-(4-methoxyphenyl)propan-2-yl)thiazol-2-yl)-4-(piperidin-4-yl)benzamide hydrochloride] the figure was 128 nM.
Turning to `CC1CNCCN1c1ccc(CNC(=O)Nc2nc(C(C)(C)c3ccc(Br)cc3)cs2)cc1` (stereo not drawn) [Example A029, 1-(4-(2-(4-bromophenyl)propan-2-yl)thiazol-2-yl)-3-(4-(2-methylpiperazin-1-yl)benzyl)urea], half-maximal inhibition (IC50) was put at 73 nM.
The compound `COc1ccc(C(C)(C)c2csc(NC(=O)c3ccc(NCCO)cc3)n2)cc1` [Example B032, 4-((2-hydroxyethyl)amino)-N-(4-(2-(4-methoxyphenyl)propan-2-yl)thiazol-2-yl)benzamide] displayed an IC50 under setting [1] of 280 nM.
The same measure, in the same setting: the same measure for `COCC(C)(c1ccc(Br)cc1)c1csc(NC(=O)c2c(F)cc(N3CCNCC3)cc2F)n1` (stereo not drawn) [Example C014, N-(4-(2-(4-bromophenyl)-1-methoxypropan-2-yl)thiazol-2-yl)-2,6-difluoro-4-(piperazin-1-yl)benzamide]: 13 nM.
On the same count and under the same terms, with `COc1ccc(C(C)(C)c2csc(NC(=O)c3ccc(CN4CCNCC4)cc3)n2)cc1` [Example B040, N-(4-(2-(4-methoxyphenyl)propan-2-yl)thiazol-2-yl)-4-(piperazin-1-ylmethyl)benzamide] the figure was 93 nM.
On the same count and under the same terms, with `C#CC(C)(c1csc(NC(C)=O)n1)c1ccc(Br)cc1F` (stereo not drawn) [Example D003, N-(4-(2-(4-bromo-2-fluorophenyl)but-3-yn-2-yl)thiazol-2-yl)acetamide] the figure was 183 nM; with `COc1ccc(C(C)(C)c2csc(NC(=O)c3ccc(N4CCNCC4)cc3)n2)cc1` [Example B001, N-(4-(2-(4-methoxyphenyl)propan-2-yl)thiazol-2-yl)-4-(piperazin-1-yl)benzamide], 123 nM.
For the compound `COc1ccc(C(C)(C)c2csc(NC(=O)NCc3ccc(NCCO)cc3)n2)cc1` [Example A109, 1-(4-((2-hydroxyethyl)amino)ben-zyl)-3-(4-(2-(4-methoxyphenyl)propan-2-yl)thiazol-2-yl)urea], the midpoint of inhibition, the IC50, lay at 146 nM.
`C#CC(C)(c1ccc(Br)cc1)c1csc(NC(=O)C2CC(O)C2)n1` (stereo not drawn) [Example D007, N-(4-(2-(4-bromophenyl)but-3-yn-2-yl)thiazol-2-yl)-3-hydroxycyclobutanecarboxamide]: the IC50 under setting [1] stood at 55 nM.
In turn, `C#C[C@@](C)(c1ccc(Cl)cc1)c1nc(NC(=O)c2c(F)cc(N3CCNCC3)cc2F)sc1Cl` (stereo in doubt) [Example C050, N-(5-chloro-4-(2-(4-chlorophenyl)but-3-yn-2-yl)thiazol-2-yl)-2,6-difluoro-4-(piperazin-1-yl)benzamide] gave an IC50 under setting [1] of 923 nM.
The compound `C#CC(C)(c1ccc(Cl)cc1)c1c[nH]c(NC(=O)c2c(F)cc(N3CCNCC3)cc2F)n1` (stereo not drawn) [Example C052, N-(4-(2-(4-chlorophenyl)but-3-yn-2-yl)-1H-imidazol-2-yl)-2,6-difluoro-4-(piperazin-1-yl)benzamide] gave a half-inhibitory concentration (IC50) under setting [1] of 44 nM.
Consider `C#C[C@](C)(c1ccc(OC)cc1)c1csc(NC(=O)N2CC(CO)C2)n1` [Example A255, (R)-3-(hydroxymethyl)-N-(4-(2-(4-methoxyphenyl)but-3-yn-2-yl)thiazol-2-yl)azetidine-1-carboxamide], for which the half-inhibitory concentration (IC50) is 688 nM.
